Laboratory results: patent publication US20080070971A1, “Medical Use of Bilirubin and its Structural Analogues” (priority 2006, published 2008)

Assays:
[1] = test system: liver cholesterol esterase; experiment: Cholesterol esterification by liver cholesterol esterase; format: biochemical
Human carcinoma cells = experiment: Cancer cell growth by cell counting; format: cell-based; details: concentrations above 10 mg/L (FIG. 10)
Experimental: Cell growth. Human carcinoma cells were cultured continuously in a medium containing ferrous sulfate, kept in a humidified incubator at 37° C. Cancer cells were seeded in triplicate at a density of 10,000 cells/3.5-cm culture dish overnight before being subjected to treatments. Growth was estimated by counting cells in a hemocytometer after staining cells with trypan blue. Cell yields from cultures maintained in seeding medium served as growth controls for computing the relative cell growth.

[2] = test system: Pancreas phospholipase A2 (PLA2); experiment: Phospholipase A2 FlashPlate inhibition assay; format: biochemical; details: bilirubin concentration of about 10 mg/L; pH=7.2 (FIG. 1)
Experimental: Pancreas phospholipase A2 (PLA2) (SigmaAldrich Cat.# P223), acetylcholinesterase (SigmaAldrich cat.# C0663), acetyleholine chloride (Cat.# A6625), and bilirubin (SigmaAldrich #B4126) were purchased from SigmaAldrich. Bilirubin solution was prepared freshly by dissolving it in dimethyl sulfoxide (DMSO) and further dilutions were made in Tris-HCl buffer (pH 7.4). The sPLA2 activity was determined by the FlashPlate assay procedure described by Do and Kasila (American Biotechnology Laboratory, June 2001, P 51-52). Briefly, phospholipid flash plates (PerkinElmer Life Sciences, cat. #SMP108) were coated with 0.2 mL/well of the substrate of 1-steroyl 2-arachidonyl phosphatidylcholine (PerkinElmer Life Sciences, cat. #NE872). The plate was covered and incubated overnight at room temperature. After the incubation, the wells were aspirated prior to use in the PLA2 assay. The substrate assay buffer contained 50 mM tris-HCl (pH=7.3), 0.2 M NaCl, 0.1 mM CaCl2, 0.1 mM EDTA, 0.02% deoxycholate, 10-50 units/mL PLA2, and final volume 200 μL/well. The bound radioactivity was determined by counting the FlashPlate.

acetylcholinesterase = biological target: T1, acetylcholinesterase (Homo sapiens, UniProt P22303); experiment: Acetylcholinesterase activity by choline release; format: biochemical; details: at high bilirubin concentrations (FIG. 2)
T1 construct: purchased SigmaAldrich C0663
T1 sequence (P22303 32-617 isoform P22303-2 limits assumed): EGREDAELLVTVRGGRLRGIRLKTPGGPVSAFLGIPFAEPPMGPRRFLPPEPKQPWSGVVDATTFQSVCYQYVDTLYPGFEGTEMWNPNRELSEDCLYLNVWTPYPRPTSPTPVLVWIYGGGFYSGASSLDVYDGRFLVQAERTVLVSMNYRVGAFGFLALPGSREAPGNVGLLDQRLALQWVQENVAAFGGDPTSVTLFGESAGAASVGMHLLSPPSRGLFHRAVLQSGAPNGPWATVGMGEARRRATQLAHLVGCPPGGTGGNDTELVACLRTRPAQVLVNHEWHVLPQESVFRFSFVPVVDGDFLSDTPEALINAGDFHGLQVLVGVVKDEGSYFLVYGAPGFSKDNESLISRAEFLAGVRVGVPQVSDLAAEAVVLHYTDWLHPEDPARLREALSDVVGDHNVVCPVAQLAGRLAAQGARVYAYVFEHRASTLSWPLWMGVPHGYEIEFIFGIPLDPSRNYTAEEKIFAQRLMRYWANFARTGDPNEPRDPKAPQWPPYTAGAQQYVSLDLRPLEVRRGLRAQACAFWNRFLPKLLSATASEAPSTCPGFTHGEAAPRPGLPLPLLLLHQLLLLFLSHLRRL
Experimental: Since bilirubin itself gives an absorption peak at 460 nm, which interferes with the cholinesterase assay procedures in many standard assay kits, a modified method was developed. The acetylcholinesterase activity was determined by measuring the quantity of choline release from acetylcholine:
Briefly, after 30 minutes reaction in the above acetylcholine-enzyme solution at pH=7.8, in the absence or presence of bilirubin, the reaction was stopped by heating to about 100° C. in boiling water. The solution was then cooled down to 37° C. Residual bilirubin was neutralized by titrating with H2O2. The amount of choline was then determined by the following choline oxidase assay method provided by SigmaAldrich (Cat.# C5896): […]

[3] = biological target: T2, isocitrate dehydrogenase (ICDH) (Sus scrofa, UniProt P33198); experiment: Isocitrate dehydrogenase inhibition; format: biochemical; details: concentration equivalent to the moderate level of serum bilirubin (FIG. 7)
T2 construct: purchased SigmaAldrich I2516
T2 sequence (P33198 9-421): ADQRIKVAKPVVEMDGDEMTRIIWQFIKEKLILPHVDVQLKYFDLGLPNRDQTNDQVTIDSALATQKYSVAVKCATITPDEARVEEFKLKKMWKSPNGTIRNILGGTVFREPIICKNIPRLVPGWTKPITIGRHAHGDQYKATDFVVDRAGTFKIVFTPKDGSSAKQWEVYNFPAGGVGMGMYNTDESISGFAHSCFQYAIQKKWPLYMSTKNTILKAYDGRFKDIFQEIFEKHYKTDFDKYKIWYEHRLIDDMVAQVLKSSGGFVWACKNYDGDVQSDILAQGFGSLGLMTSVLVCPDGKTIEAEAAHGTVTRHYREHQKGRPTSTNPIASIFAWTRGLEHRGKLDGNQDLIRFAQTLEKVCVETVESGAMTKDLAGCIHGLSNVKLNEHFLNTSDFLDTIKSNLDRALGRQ
Experimental: NAD (Cat.#N1511), NADH (Cat. N9410), NADP (Cat.#N8610) and NADPG (Cat. #N7505), HMG-CoA (Cat.#H6132) were purchased from Sigma Aldrich (St. Louis, Mo.). NADP-linked isocitrate dehydrogenase was also obtained from SigmaAldrich (Cat.#I2516). Other liver enzymes were prepared as follows.

[4] = Oral bilirubin supplementation, blood chemistry; format: in vivo
Experimental: 2-6 bilirubin pills (10 mg/capsule)were ingested daily as a dietary supplement over time period from 3-12 months. Blood samples were taken by medical professionals and blood chemistry, including serum bilirubin level, total cholesterol, triglyceride, LDL-cholesterol, and HDL cholesterol were analyzed by independent medical testing laboratories.

[5] = test system: histone deacetylase (HDAC), HeLa cell lysate; experiment: Histone deacetylase (HDAC) assay; format: biochemical
Experimental: Assay of histone decaetylase (HDAC). The activity of HDAC was measured according to the procedure provided by SigmaAldrich (Histone Deacetylase Assay Kit, Cat.# CS1010). HeLa cel lysate provided by the assay kit was used as a source for HDAC activity in the inhibition testing.

[6] = Minimal erythema dose (MED) on skin exposed to solar radiation; format: in vivo, human
Description: Healthy volunteers were exposed to solar radiation for evaluation of minimal erythema dose (MED)—a direct sign of acute inflammation, without and with pretreatment of bilirubin (dissolved in dimethyl sulfoxide).

[7] = 2-6 pills (10 mg/capsule) daily, 3-12 months
[8] = at higher serum bilirubin level (FIG. 12)

For C=CC1=C(C)C(=Cc2[nH]c(Cc3[nH]c(C=C4NC(=O)C(C)=C4C=C)c(C)c3CCC(=O)O)c(CCC(=O)O)c2C)NC1=O [bilirubin, 2,7,13,17-tetramethyl-1,19-dioxo-3,18-divinyl-1,10,19,22,23,24-hexahydro-21H-biline-8,12-dipropanoic acid], the “inhibition of cholesterol esterification by liver cholesterol esterase” value [1] was “inhibits”, the relative cell growth (Human carcinoma cells) was “largely suppressed” and the “inhibition of the PLA2 activity” value [2] was “about 80%”. For the same molecule, the acetylcholinesterase activity (acetylcholinesterase) was “completely eliminated”, the “inhibition of isocitrate dehydrogenase” value [3] was “strongly suppressed” and the total cholesterol concentration [4, 7] was “varied inversely”. For the same molecule, the “total serum bilirubin level” value [4, 7] was “effectively increased”, the LDL-cholesterol level [4, 8] was “lower” and the triglycerol level [4, 8] was “lower”. The fecal fat content ([4]; bilirubin treatment) was “substantially increased”, the “50% inhibition concentration (IC50)” value ([5]; substrate concentration 5 μM) was 16.5 µg/mL and the “50% inhibition concentration (IC50)” value ([5]; substrate concentration 50 μM) was 40 µg/mL. The “skin inflammation after UV exposure” value ([6]; bilirubin treated skin areas) was “no sign of inflammation” and the “minimal erythema dose (MED)” value ([6]; topical pretreatment with bilirubin in DMSO (FIG. 8)) was “increased”.
